Read-outs that look alike come from different tables or passages of the source.
Columns and labels:
[1] = system: late-stage (LG) Pf NF54 gametocytes; test: Luciferase assay, late-stage gametocytes; type: cell-based, Plasmodium falciparum; conditions: for IC50: late-stage gametocytes >90% stages IV-V, dose response obtained at 72 h, ± SEM
Method: (§1) For screening artemisox and M1 against early- (EG) and late-stage (LG) gametocytes, the luciferase assay with transgenic NF54-pfs16-GFP-Luc and NF54-Mal8p1.16-GFP-Luc parasite lines was used. With this assay, stage-specificity of gametocytocidal action was established (Table 2). Dose-response curves are in Figures S1d,e and S2d in the Supplementary Material 1. […] As was observed previously for artemisone and artemiside, dose responses for artemisox and M1 could not be obtained at 48 h against late-stage gametocytes.
(§2) The same reference compounds with the exception of CQ were used for the early- and late-stage gametocyte assays. Gametocytocidal activity was determined using the transgenic NF54-pfs16-GFP-Luc and NF54-Mal8p1.16-GFP-Luc reporter lines. Compounds were initially screened for activity at a fixed drug concentration of 1 µM, with dose responses subsequently determined using 2-fold serial drug dilutions for 48 h against early-stage gametocytes (day 5 post-induction population, ≥95% stages II–III) and 10-fold serial drug dilutions for 48 h or 72 h against late-stage gametocytes (day 10 post-induction population, ≥90% late-stage [stages IV–V]) (2 to 3% gametocytemia, 2% hematocrit) at 37 °C under 90% N2, 5% CO2, and 5% O2 [6]. No drug washout steps were performed during the drug incubation periods prior to the assays. In all cases, an interference assay was run in parallel to eliminate the possibility of false positives arising through compound interference with the luciferase readout.

[2] = system: CQ-resistant P. yoelii NS strain; conditions: cited from earlier work; for P. yoelii ED90 po / P. yoelii ED90 sc: Peters four-day test, mice, ref S4 (24); for P. yoelii ED90 sc: subcutaneous; for P. yoelii artesunate index sc: ref S4
[3] = system: early-stage (EG) Pf NF54 gametocytes; design: method as in PMID 29866868; conditions: early-stage gametocytes >95% stages II-III; 48 h incubation; ± SEM; cited from earlier work
P. berghei ANKA strain = conditions: cited from earlier work; for outcome of combination with piperaquine: P. berghei ANKA infected mice, ip 0.66 mg/kg with piperaquine 10 mg/kg
HepG2 = conditions: ref S3, cited from earlier work; for EC50: read-out: Cytotoxicity EC50 HepG2
[4] = system: asexual blood stages of Pf W2 (drug resistant); design: method as in PMID 29866868, PMID 31998692; conditions: cited from earlier work; for IC50: asexual blood stage Pf W2, multidrug resistant, SYBR Green I, ± SEM
[5] = system: Chinese hamster ovary (CHO) cells; design: method as in PMID 29866868, PMID 31998692; conditions: other cell lines including CHO cells; read-out: EC50 cytotoxicity; cited from earlier work
[6] = system: CQ-sensitive P. berghei N strain; conditions: cited from earlier work; for P. berghei ED90 po / P. berghei ED90 sc: Peters four-day test, mice, ref S4 (24); for P. berghei ED90 po: oral daily day 0-3; for P. berghei ED90 sc: subcutaneous daily day 0-3
P. berghei sporozoites = conditions: cited from earlier work; for Maximum inhibition % P. berghei sporozoites: ref S3; for IC50: luciferase-expressing P. berghei ANKA GFP-Luc-SMcon sporozoites in HepG2 cells, 48 h, ± SD, ref S3 (7)
[7] = system: asexual blood stages of Pf NF54 (drug sensitive); design: method as in PMID 29866868, PMID 31998692; conditions: asexual blood stage Pf NF54, CQ sensitive; SYBR Green I; ± SEM; cited from earlier work
[8] = system: P. falciparum asexual blood stage artemisinin-resistant clone PL08-009 (5C) carrying the PfKI3 C580Y mutation; design: method as in ref S3; conditions: ref S3, cited from earlier work; for IC50 / IC90: 36 h life cycle, PfKI3 C580Y
[9] = design: method as in PMID 18559649; conditions: clinical Phase I trial, subject plasma samples; cited from earlier work
[10] = system: TM91-C235 (CQ and MFQ resistant); design: method as in ref S2; conditions: [3H]-hypoxanthine assay; ref S2; read-out: Antimalarial activities IC50 TM91-C235; cited from earlier work
TM-C2B = system: TM-C2B; design: method as in ref S2; conditions: [3H]-hypoxanthine assay; ref S2; read-out: Antimalarial activities IC50 TM-C2B; cited from earlier work
[11] = system: early-stage (EG) Pf NF54 gametocytes; test: Luciferase assay, early-stage gametocytes; type: cell-based, Plasmodium falciparum; conditions: early-stage gametocytes >95% stages II-III, 48 h incubation, ± SEM
Method: as §1, §2

[12] = system: asexual blood stages of Pf NF54 (drug sensitive); test: SYBR Green I proliferation assay, asexual blood stages, Pf NF54; type: cell-based, Plasmodium falciparum
Method: Dose response curves are in Figures S1a–c and S2a–c in the Supplementary Material 1. Table 1 also includes the historical values for artemiside and artemisone obtained using the same assay.
All other assay conditions are as previously described. Compound working solutions were prepared from a 10 mM stock solution in 100% (vol/vol) dimethyl sulfoxide (DMSO, Sigma-Aldrich) in supplemented RPMI 1640 medium containing AlbuMAX II with a final DMSO concentration of 0.1% (vol/vol), previously determined to be nontoxic to blood stage asexual parasites and gametocytes. The dose-responses of the amino-artemisinins were assayed using a 2-fold serial drug dilution on in vitro 95% ring-stage parasites at 37 °C under 90% N2, 5% CO2, and 5% O2 atmospheric conditions, detecting SYBR green I fluorescence as the proliferative marker following a 96 h drug treatment (1% parasitemia and 1% hematocrit) using a GloMaxR-Multi+ Detection System (Promega). No drug washout steps were performed during drug incubation periods prior to the assays. Activity against the Pf drug-sensitive NF54 strain and the drug-resistant K1 (resistant to CQ, quinine, pyrimethamine, and cycloguanil) and W2 (resistant to CQ, quinine, pyrimethamine, and cycloguanil) strains was evaluated. Data analysis was performed using GraphPad Prism (version 6), intra-assay variability was monitored with Z-factors, and acceptable interassay reproducibility was determined from the percent coefficient of variation (CV).

| Compound | P. yoelii ED90 po [2] [mg/kg] | P. yoelii ED90 sc [2] [mg/kg] | P. yoelii artesunate index sc [2] | IC50 [3] [nM] | outcome of combination with piperaquine (P. berghei ANKA strain) | EC50 (HepG2) [nM] | SI = EC50 HepG2/IC50 P. berghei sporozoites (HepG2) | IC50 [4] [nM] | RI = IC50 W2/IC50 NF54 [4] | EC50 [5] [nM] | P. berghei ED90 po [6] [mg/kg] | P. berghei ED90 sc [6] [mg/kg] | P. berghei artesunate index sc (ED90 artesunate/ED90 compound) ([6]; ref S4) | IC50 (P. berghei sporozoites) [nM] | IC50 [7] [nM] | IC50 [8] [nM] | IC90 [8] [nM] | RI = IC50 for PL08-09 (5C)/IC50 for W2 [8] | also measured |
| --- | --- | --- | --- | --- | --- | --- | --- | --- | --- | --- | --- | --- | --- | --- | --- | --- | --- | --- | --- |
| C[C@H]1[C@H](N2CCS(=O)(=O)CC2)O[C@@H]2O[C@@]3(C)CC[C@H]4[C@H](C)CC[C@@H]1[C@@]24OO3 [Artemisone 7, Artemisone] | 5.0 | 3.9 | 5.6 | 1.94 ± 0.11 | recrudescence with eventual mortality was observed | > 50000 | > 1767 | 1.6 ± 0.4 | 1.36 | > 241000 | 3.1 | 1.5 | 3.2 | 28.3 | 1.2 ± 0.4 | 0.27 | 0.43 | 0.2 | fold decrease in activity against late-stage gametocytes ([1]; late-stage vs early-stage gametocytes, p < 0.05): > 20 fold; P. berghei artesunate index po (ED90 artesunate/ED90 compound) ([6]; ref S4): 2.3; Maximum inhibition % P. berghei sporozoites (P. berghei sporozoites; at 10 µM): 93.35±1.76%; fold higher ex vivo antimalarial activity at Tmax than corresponds to plasma concentration by LC-MS/MS [9]: 2.3 fold; IC50 [10]: 1.1 ± 0.5 nM; IC50 (TM-C2B): 1.1 ± 0.4 nM |
| C[C@H]1[C@H](N2CC[S+]([O-])CC2)O[C@@H]2O[C@@]3(C)CC[C@H]4[C@H](C)CC[C@@H]1[C@@]24OO3 [Artemisox 6, Artemisox] |  |  |  |  |  |  |  |  |  |  |  |  |  |  |  |  |  |  | IC50 ([1]; Plasmodium falciparum, NF54, 72 h): 2.7 nM; IC50 [1]: 2.72 ± 0.09 nM; IC50 ([11]; Plasmodium falciparum, NF54, 48 h): 18.9 nM; IC50 [11]: 18.9 ± 0.98 nM; IC50 ([12]; Plasmodium falciparum, NF54, 96 h, asexual blood stage Pf NF54, CQ sensitive, SYBR Green I, 96 h, ± SEM, read-out: IC50 NF54): 1.95 ± 0.25 nM; IC50 ([12]; Plasmodium falciparum, NF54, summary over NF54, K1 and W2 strains, read-out: IC50 against asexual Pf blood stage parasites): ~2 nM; IC50 ([12]; summary over NF54, K1 and W2 strains, read-out: IC50 against asexual Pf blood stage parasites): 1.5 to 2.6 nM |
| C[C@H]1[C@H](N2CCSCC2)O[C@@H]2O[C@@]3(C)CC[C@H]4[C@H](C)CC[C@@H]1[C@@]24OO3 [Artemiside 5, Artemiside] | 2.0 | 0.61 | 36.0 | 16.4 ± 1 | survival of all mice, with no recrudescence taking place | > 25000 | > 308 | 1.75 ± 0.27 | 1.58 | > 241000 | 1.9 | 0.51 | 14.1 | 81.3 | 1.11 ± 0.17 | 0.29 | 0.43 | 0.1 | outcome in cerebral malaria model (P. berghei ANKA strain; mice infected with P. berghei ANKA, artemiside 3 mg/kg/d ip for 4 days (days 2–5 post-infection)): complete cure; Maximum inhibition % P. berghei sporozoites (P. berghei sporozoites; at 5 µM): 99.05±1.34% |
